Read-outs that look alike come from different tables or passages of the source.
Assays:
[1] = Observed pharmacokinetics of antiretrovirals in nonobese and obese individuals (SHCS therapeutic drug monitoring data and literature studies, noncompartmental analysis); conditions: for AUC(0-t) / Cmax / half-life: human, plasma, po, nonobese individuals; for AUC(0-t): AUCt; for AUC(0-t) / Cmax: observed; for AUC(0-t) / Cmax / half-life / Cτ, observed, nonobese individuals: nonobese (BMI range per drug), GM; for half-life: t1/2, observed
Text: (§1) We took several steps to analyse the impact of obesity on the ARVs exposure and response. First, we implemented our in-house PBPK model with our recently published virtual White obese population to simulate the pharmacokinetics of ARVs in nonobese and obese individuals. Next, we verified the simulations against the TDM data collected during the follow-up visits of the SHCS (multiple drug levels per individual were allowed [more information on the SHCS in the homonymous section in the Supplementary Material]). We then applied the verified model to extrapolate the pharmacokinetics across different obesity classes. Finally, the clinical relevance of obesity-related changes on drug response was evaluated by analyzing HIV viral load and the corresponding TDM values in obese and nonobese individuals in the SHCS.
(§2) All ARV drug models, except for doravirine (Supplementary Table 1), were previously developed and verified to predict the pharmacokinetics in healthy and elderly PWH [6, 12]. […] The TDM data were excluded if the participant’s age was younger than 20 or older than 50 years to avoid the age-related confounding effect on the pharmacokinetics, if a nonstandard ARV dosage was used, and if concurrent medications with inhibitory or inducing effects were used. The pharmacokinetic parameters including peak plasma concentration (Cmax), area under the curve to time t (AUCt), and trough concentration (Cτ) were derived from the TDM data using noncompartmental analysis.
(§3) A literature search was also performed to identify pharmacokinetic studies with ARVs conducted in obese and nonobese individuals. Data on the study design, characteristics of the participants, and pharmacokinetic results were collected. […] Available concentration-time profiles were digitalized using GetData Graph Digitizer V.2.26. The virtual trials were conducted by matching the participants’ demographics (eg, age, proportion of females, and BMI) and the ARV dosing regimen (Supplementary Table 2). The models were considered verified if the simulations were within 2-fold of observed data.
The Swiss HIV Cohort Study (SHCS) is an ongoing, nationwide, multicenter, clinic-based prospective cohort study in Switzerland with continuous enrollment and follow-up (twice a year) of people with HIV (PWH). Socio-demographic, clinical and laboratory data are recorded in detail. […] The collection of therapeutic drug monitoring (TDM) data in the SHCS database was initiated in 1998. All available TDM data for each evaluated antiretroviral drug were extracted from the SHCS database representing 6210 and 575 data points for the verification of the simulations in non-obese and obese individuals, respectively.

[2] = PBPK model virtual trials matched to the observed studies (model verification, nonobese vs obese); design: species or system human; conditions: for AUCt, Ratio Predicted/Observed, Nonobese / Cmax, Ratio Predicted/Observed, Nonobese / Cτ, Ratio Predicted/Observed, Nonobese / t1/2, Ratio Predicted/Observed, Nonobese: nonobese individuals; for Predictions within x-fold of observed clinical data: pharmacokinetic parameters in obese and nonobese individuals, 1.25-fold 'for the most part'
Text: as §1, §2, §3

HIV viral load = test: Drug response in obese versus nonobese participants in the SHCS (concentration below efficacy threshold and viral load >50 copies/mL)
Description: The viral load was analyzed in conjunction with the TDM data to evaluate whether a decrease in ARV exposure in obese PWH is associated with a viral load of more than 50 copies/mL (the viral load measured on the date of the TDM assessment was considered for this evaluation).

[3] = cited from earlier work; for AUCt, observed, nonobese individuals / Cmax, observed, nonobese individuals / Cτ, observed, nonobese individuals / t1/2, observed, nonobese individuals: standard oral dose at steady state, GM (mean for etravirine, emtricitabine, tenofovir), literature studies only, ref Supplementary Table 2 [9-16, 21-24]
[4] = Black African PWH, median BMI 25.3 vs 32.8 kg/m^2; cited from earlier work
[5] = over 18 mo after switching from tenofovir disoproxil fumarate; cited from earlier work
[6] = obese (BMI >=30, range per drug), standard oral dose at steady state, GM (mean for etravirine), SHCS TDM data with or without literature data
[7] = BMI 18.5–30 kg/m^2, viral load above 50 copies/mL
[8] = BMI >30 kg/m^2, viral load above 50 copies/mL
[9] = standard oral dose at steady state, SHCS TDM data with or without literature data
[10] = obese BMI 36–46 kg/m^2, 245 mg QD, mean, literature study only

| Compound | Cτ, observed, obese individuals [1, 6] [ng/mL] | AUCt, Ratio Predicted/Observed, Nonobese [2] | Cmax, Ratio Predicted/Observed, Nonobese [2] | Cτ, Ratio Predicted/Observed, Nonobese [2] | t1/2, Ratio Predicted/Observed, Nonobese [2] | % PWH with concentration below efficacy threshold (HIV viral load; BMI 18.5–30 kg/m^2) [%] | % PWH with virological failure amongst those with concentration below efficacy threshold (HIV viral load; [7]) [%] | % PWH with concentration below efficacy threshold (HIV viral load; BMI >30 kg/m^2) [%] | % PWH with virological failure amongst those with concentration below efficacy threshold (HIV viral load; [8]) [%] | AUCt, observed, nonobese individuals [3] [ng·h/mL] | Cmax, observed, nonobese individuals [3] [ng/mL] | Cτ, observed, nonobese individuals [3] [ng/mL] | AUC(0-t) [1, 9] [ng·h/mL] | Cmax [1, 9] [ng/mL] | half-life [1, 9] [h] | Cτ, observed, nonobese individuals [1, 9] [ng/mL] | also measured |
| --- | --- | --- | --- | --- | --- | --- | --- | --- | --- | --- | --- | --- | --- | --- | --- | --- | --- |
| Cc1cc(/C=C/C#N)cc(C)c1Nc1ccnc(Nc2ccc(C#N)cc2)n1 [Rilpivirine, rilpivirine] | 89.2 | 1.05 | 0.93 | 0.96 | 0.65 | 15 | 1.9 | 0 | 0 | 2333 | 159.7 | 75.2 | – | – | – | – | Cmax, observed, obese individuals [1, 6]: 147.7 ng/mL; AUCt, Ratio Obese/Nonobese, Observed ([1]; observed data): 0.85; Cmax, Ratio Obese/Nonobese, Observed ([1]; observed data): 0.92; Cτ, Ratio Obese/Nonobese, Observed ([1]; observed data): 1.19; AUCt, Ratio (Predicted Ratio Obese/Nonobese)/(Observed Ratio Obese/Nonobese) [2]: 1.16; Cmax, Ratio (Predicted Ratio Obese/Nonobese)/(Observed Ratio Obese/Nonobese) [2]: 1.09; Cτ, Ratio (Predicted Ratio Obese/Nonobese)/(Observed Ratio Obese/Nonobese) [2]: 0.87; AUCt, Ratio Predicted/Observed, Obese ([2]; obese individuals): 1.23; Cmax, Ratio Predicted/Observed, Obese ([2]; obese individuals): 1.00; Cτ, Ratio Predicted/Observed, Obese ([2]; obese individuals): 0.84; Predictions within x-fold of observed clinical data [2]: ≤ 1.25 fold; t1/2, observed, nonobese individuals [3]: 47.2 h |
| O=C1Nc2ccc(Cl)cc2[C@@](C#CC2CC2)(C(F)(F)F)O1 [Efavirenz, efavirenz] | 1512 | – | – | – | – | 2.3 | 1.1 | 5.2 | 1.1 | – | – | – | 52200 | 3170 | 20.2 | 1751 | – |
| C[C@@H]1CCO[C@H]2Cn3cc(C(=O)NCc4ccc(F)cc4F)c(=O)c(O)c3C(=O)N12 [Dolutegravir, dolutegravir] | 940 | – | – | – | – | 2.1 | 0.3 | 2.6 | 0 | – | – | – | 45400 | 3320 | 12.6 | 889 | Reduction in AUCt, obese vs nonobese [4]: 9%; Reduction in Cmax, obese vs nonobese [4]: 14%; Reduction in Cτ, obese vs nonobese [4]: 1% |
| CC(C)c1nc(CN(C)C(=O)N[C@H](C(=O)N[C@@H](Cc2ccccc2)C[C@H](O)[C@H](Cc2ccccc2)NC(=O)OCc2cncs2)C(C)C)cs1 [Ritonavir, ritonavir] | 71.3 | – | – | – | – | – | – | – | – | – | – | – | 5740 | 480 | 5.4 | 91.4 | – |
| Cc1nnc(C(=O)NC(C)(C)c2nc(C(=O)NCc3ccc(F)cc3)c(O)c(=O)n2C)o1 [Raltegravir, raltegravir] | 171 | – | – | – | – | 4 | 1.6 | 4.7 | 0 | – | – | – | – | – | – | 142 | – |
| Cc1cc(C#N)cc(C)c1Oc1nc(Nc2ccc(C#N)cc2)nc(N)c1Br [Etravirine, etravirine] | 313 | – | – | – | – | 32.1 | 11.9 | 10 | 0 | 7970 | 949 | 464 | – | – | – | – | – |
| O=C(NCc1c(F)cc(F)cc1F)c1cn2c(c(O)c1=O)C(=O)N1[C@H]3CC[C@H](C3)O[C@@H]1C2 [Bictegravir, bictegravir] | – | 0.97 | 0.87 | 1.01 | 1.27 | 1.5 | 0 | 0 | 0 | – | – | – | 85800 | 5240 | 20.6 | 2373 | Predictions within x-fold of observed clinical data [2]: ≤ 1.5 fold |
| Nc1nc(=O)n([C@@H]2CS[C@H](CO)O2)cc1F [Emtricitabine, emtricitabine] | – | 1.10 | 0.99 | 1.35 | 1.86 | – | – | – | – | 9589.4 | 1640.2 | 67.1 | – | – | – | – | t1/2, observed, nonobese individuals [3]: 9.4 h |
| darunavir/ritonavir | – | – | – | – | – | – | 1.6 | – | 0 | – | – | – | – | – | – | – | – |
| CC(C)OC(=O)[C@H](C)N[P@](=O)(CO[C@H](C)Cn1cnc2c(N)ncnc21)Oc1ccccc1 [tenofovir alafenamide] | – | – | – | – | – | – | – | – | – | – | – | – | – | – | – | – | Increase in weight [5]: 1.7 kg |
| C[C@H](Cn1cnc2c(N)ncnc21)OCP(=O)(O)O [Tenofovir, tenofovir] | – | 1.06 | 1.00 | 1.11 | 1.15 | – | – | – | – | 2858.4 | 300.5 | 58.2 | – | – | – | – | AUCt, Ratio Predicted/Observed, Obese ([2]; obese individuals): 0.95; Cmax, Ratio Predicted/Observed, Obese ([2]; obese individuals): 0.83; Cτ, Ratio Predicted/Observed, Obese ([2]; obese individuals): 1.13; t1/2, Ratio Predicted/Observed, Obese ([2]; obese individuals): 1.75; t1/2, observed, nonobese individuals [3]: 14.9 h; AUCt, observed, obese individuals [3, 10]: 2346 ng·h/mL; Cmax, observed, obese individuals [3, 10]: 263 ng/mL; Cτ, observed, obese individuals [3, 10]: 47 ng/mL; t1/2, observed, obese individuals [3, 10]: 13 h |

From paper PMC10810714, “Antiretroviral Drug Exposure and Response in Obese and Morbidly Obese People With Human Immunodeficiency Virus (HIV): A Study Combining Modelling and Swiss HIV Cohort Data” (Clinical Infectious Diseases: An Official Publication of …, 2023)
